Experimental data as given in paper PMC11995724, “Antibiotic target discovery by integrated phenotypic and activity-based profiling of electrophilic fragments” (Cell chemical biology, 2025).

Assay: in vitro
Details: human, hek293t cells

Row | Structure (SMILES) | viability at 48 h, 25 µM
1 | C=CC(=O)N(C)CC(=O)N1CCn2cccc2C1C (stereo not drawn) [2-K10, N-methyl-N-(2-{1-methyl-1H,2H,3H,4H-pyrrolo[1,2-a]pyrazin-2-yl}-2-oxoethyl)prop-2-enamide] | 101%
2 | C=CC(=O)Nc1ccc(F)c(-n2nnnc2C)c1 [2-K11, N-[4-fluoro-3-(5-methyl-1H-1,2,3,4-tetrazol-1-yl)phenyl]prop-2-enamide] | 195%
3 | C=CC(=O)N1CCCC(c2nc(C)no2)C1 (stereo not drawn) [2-K12, 1-[3-(3-methyl-1,2,4-oxadiazol-5-yl)piperidin-1-yl]prop-2-en-1-one] | 101%
4 | C=CC(=O)Nc1ccnn1C1CCCC1 [2-K13, N-(1-cyclopentyl-1H-pyrazol-5-yl)prop-2-enamide] | 24%
5 | C=CC(=O)NC(Cc1ccccc1)c1ccccn1 (stereo not drawn) [2-K14, N-[2-phenyl-1-(pyridin-2-yl)ethyl]prop-2-enamide] | 113%
6 | C=CC(=O)N1CCC(C(=O)Nc2nc3cc(F)c(C)cc3s2)CC1 [2-K15, N-(5-fluoro-6-methyl-1,3-benzothiazol-2-yl)-1-(prop-2-enoyl)piperidine-4-carboxamide] | 191%
7 | C=CC(=O)Nc1ccc2nc(O)n(C3CC3)c2c1 [2-K16, N-(1-cyclopropyl-2-hydroxy-1H-1,3-benzodiazol-6-yl)prop-2-enamide] | 83.3%
8 | C=CC(=O)N1CCC(NC(=O)c2oc(C)cc2C)CC1 [2-K17, 3,5-dimethyl-N-[1-(prop-2-enoyl)piperidin-4-yl]furan-2-carboxamide] | 79.7%
9 | C=CC(=O)N1CCC(C(=O)NC2CCCc3cc(F)ccc32)CC1 (stereo not drawn) [2-K18, N-(6-fluoro-1,2,3,4-tetrahydronaphthalen-1-yl)-1-(prop-2-enoyl)piperidine-4-carboxamide] | 94.2%
10 | C=CC(=O)N[C@H]1CCO[C@@H]1c1ccnn1C [2-K19, N-[(2S,3S)-2-(1-methyl-1H-pyrazol-5-yl)oxolan-3-yl]prop-2-enamide] | 96.4%
11 | C=CC(=O)N1CCC(C(=O)N(C)C(C)CC(N)=O)CC1 (stereo not drawn) [2-K20, 3-{N-methyl-1-[1-(prop-2-enoyl)piperidin-4-yl]formamido}butanamide] | 88.3%
12 | C=CC(=O)Nc1ccc(C(=O)NCC2CSCCS2)cc1 (stereo not drawn) [2-K21, N-[(1,4-dithian-2-yl)methyl]-4-(prop-2-enamido)benzamide] | 91.9%
13 | C=CC(=O)N(C)Cc1nc2c(n1C)CCCC2 [2-K22, N-methyl-N-[(1-methyl-4,5,6,7-tetrahydro-1H-1,3-benzodiazol-2-yl)methyl]prop-2-enamide] | 87.1%
14 | C=CC(=O)NC1(Cc2nnc3ccccn23)CCCCC1 [2-L03, N-[1-({[1,2,4]triazolo[4,3-a]pyridin-3-yl}methyl)cyclohexyl]prop-2-enamide] | 76.2%
15 | C=CC(=O)N(C)CC(=O)N1CCN(c2ccccc2[N+](=O)[O-])CC1 [2-L04, N-methyl-N-{2-[4-(2-nitrophenyl)piperazin-1-yl]-2-oxoethyl}prop-2-enamide] | 83.6%
16 | C=CC(=O)NCCc1nnc(C(C)C)s1 [2-L05, N-{2-[5-(propan-2-yl)-1,3,4-thiadiazol-2-yl]ethyl}prop-2-enamide] | 61.9%
17 | C=CC(=O)N1CCC(C(=O)N2CCN(c3ccnc(C)n3)CC2)CC1 [2-L06, 1-{4-[4-(2-methylpyrimidin-4-yl)piperazine-1-carbonyl]piperidin-1-yl}prop-2-en-1-one] | 88.5%
18 | C=CC(=O)NCc1noc2c1CC(C)(C)CC2 [2-L07, N-[(5,5-dimethyl-4,5,6,7-tetrahydro-1,2-benzoxazol-3-yl)methyl]prop-2-enamide] | 60%
19 | C=CC(=O)N1CCC(C(=O)N(CC)Cc2occc2C)CC1 [2-L08, N-ethyl-N-[(3-methylfuran-2-yl)methyl]-1-(prop-2-enoyl)piperidine-4-carboxamide] | 88.8%
20 | C=CC(=O)NCCn1cc(C2CCOC2)cn1 (stereo not drawn) [2-L09, N-{2-[4-(oxolan-3-yl)-1H-pyrazol-1-yl]ethyl}prop-2-enamide] | 53.7%
21 | C=CC(=O)N(CC)CC(=O)N1CCC(c2nncn2C)CC1 [2-L10, N-ethyl-N-{2-[4-(4-methyl-4H-1,2,4-triazol-3-yl)piperidin-1-yl]-2-oxoethyl}prop-2-enamide] | 72.6%
22 | C=CC(=O)NCCNS(=O)(=O)c1cc(C)ccc1F [2-L11, N-[2-(2-fluoro-5-methylbenzenesulfonamido)ethyl]prop-2-enamide] | 39.4%
23 | C=CC(=O)N1CCC(C(=O)N2CCCC2C2OCCO2)CC1 (stereo not drawn) [2-L12, 1-{4-[2-(1,3-dioxolan-2-yl)pyrrolidine-1-carbonyl]piperidin-1-yl}prop-2-en-1-one] | 48.7%
24 | C=CC(=O)NC1CCCN(Cc2ccccc2)C1=O (stereo not drawn) [2-L13, N-(1-benzyl-2-oxopiperidin-3-yl)prop-2-enamide] | 60.1%
25 | C=CC(=O)N1CCC(C(=O)N2CCOC(c3cccc(F)c3)C2)CC1 (stereo not drawn) [2-L14, 1-{4-[2-(3-fluorophenyl)morpholine-4-carbonyl]piperidin-1-yl}prop-2-en-1-one] | 102%
26 | C=CC(=O)NCc1ccc2oc(=O)n(C)c2c1 [2-L15, N-[(3-methyl-2-oxo-2,3-dihydro-1,3-benzoxazol-5-yl)methyl]prop-2-enamide] | 55%

Row | Structure (SMILES) | viability at 48 h, 25 µM
27 | C=CC(=O)N1CCC(C(=O)N2CCCC(C3OCCO3)C2)CC1 (stereo not drawn) [2-L16, 1-{4-[3-(1,3-dioxolan-2-yl)piperidine-1-carbonyl]piperidin-1-yl}prop-2-en-1-one] | 58%
28 | C=CC(=O)NCc1ccccc1S(=O)(=O)N1CCCC1 [2-L17, N-{[2-(pyrrolidine-1-sulfonyl)phenyl]methyl}prop-2-enamide] | 68.6%
29 | C=CC(=O)Nc1ccc(C(=O)N(C)C[C@@H]2CCC(=O)N2)cc1 [2-L18, N-methyl-N-{[(2S)-5-oxopyrrolidin-2-yl]methyl}-4-(prop-2-enamido)benzamide] | 98.8%
30 | C=CC(=O)NCC1(n2ccnn2)CC1 [2-L19, N-{[1-(1H-1,2,3-triazol-1-yl)cyclopropyl]methyl}prop-2-enamide] | 45.7%
31 | C=CC(=O)N1CCC(C(=O)N2CCCN(c3nccs3)CC2)CC1 [2-L20, 1-{4-[4-(1,3-thiazol-2-yl)-1,4-diazepane-1-carbonyl]piperidin-1-yl}prop-2-en-1-one] | 90.1%
32 | C=CC(=O)N1CCCCC1C1CCCO1 (stereo not drawn) [2-L21, 1-[2-(oxolan-2-yl)piperidin-1-yl]prop-2-en-1-one] | 66.2%
33 | C=CC(=O)N1CCCC(Oc2ccnc(C(=O)NC)c2)C1 (stereo not drawn) [2-L22, N-methyl-4-{[1-(prop-2-enoyl)piperidin-3-yl]oxy}pyridine-2-carboxamide] | 99.6%
34 | C=CC(=O)NC1CCN(c2ccccc2S(=O)(=O)CC)CC1 [2-M03, N-{1-[2-(ethanesulfonyl)phenyl]piperidin-4-yl}prop-2-enamide] | 82.2%
35 | C=CC(=O)N(C)CC(=O)N1CCCC1c1nc(C)no1 (stereo not drawn) [2-M04, N-methyl-N-{2-[2-(3-methyl-1,2,4-oxadiazol-5-yl)pyrrolidin-1-yl]-2-oxoethyl}prop-2-enamide] | 78.5%
36 | C=CC(=O)N(Cc1ccc(OC)cc1)[C@@H]1CCCC[C@H]1O [2-M05, N-[(1R,2R)-2-hydroxycyclohexyl]-N-[(4-methoxyphenyl)methyl]prop-2-enamide] | 97.6%
37 | C=CC(=O)NC(Cn1ccnc1)c1ccccc1 (stereo not drawn) [2-M06, N-[2-(1H-imidazol-1-yl)-1-phenylethyl]prop-2-enamide] | 84.5%
38 | C=CC(=O)N1CCCCC1CNC(C)=O (stereo not drawn) [2-M07, N-{[1-(prop-2-enoyl)piperidin-2-yl]methyl}acetamide] | 186%
39 | C=CC(=O)Nc1c(C)ccn2ncnc12 [2-M08, N-{7-methyl-[1,2,4]triazolo[1,5-a]pyridin-8-yl}prop-2-enamide] | 92%
40 | C=CC(=O)NCCN1CCCCC1C (stereo not drawn) [2-M09, N-[2-(2-methylpiperidin-1-yl)ethyl]prop-2-enamide] | 182%
41 | C=CC(=O)N1CCC(C(=O)Nc2nnc(CC)s2)CC1 [2-M10, N-(5-ethyl-1,3,4-thiadiazol-2-yl)-1-(prop-2-enoyl)piperidine-4-carboxamide] | 98.8%
42 | C=CC(=O)NCc1cccc(N2C(=O)NC3(CCCC3)C2=O)c1 [2-M11, N-[(3-{2,4-dioxo-1,3-diazaspiro[4.4]nonan-3-yl}phenyl)methyl]prop-2-enamide] | 89.7%
43 | C=CC(=O)NCCc1nc(-c2ccccc2)nn1C [2-M12, N-[2-(1-methyl-3-phenyl-1H-1,2,4-triazol-5-yl)ethyl]prop-2-enamide] | 87.7%
44 | C=CC(=O)Nc1cnc2cc(C)nn2c1 [2-M13, N-{2-methylpyrazolo[1,5-a]pyrimidin-6-yl}prop-2-enamide] | 136%
45 | C=CC(=O)NCCC(=O)Nc1nc2n(n1)CCCC2 [2-M14, N-[2-({5H,6H,7H,8H-[1,2,4]triazolo[1,5-a]pyridin-2-yl}carbamoyl)ethyl]prop-2-enamide] | 109%
46 | C=CC(=O)N1CCOCC2(CC2)C1 [2-M15, 1-{5-oxa-8-azaspiro[2.6]nonan-8-yl}prop-2-en-1-one] | 180%
47 | C=CC(=O)N1CCOCC1CC(=O)c1ccco1 (stereo not drawn) [2-M17, 1-{3-[2-(furan-2-yl)-2-oxoethyl]morpholin-4-yl}prop-2-en-1-one] | 194%
48 | C=CC(=O)NCc1ccc(C(=O)N2CCC(c3nnc(C)o3)CC2)cc1 [2-M18, N-({4-[4-(5-methyl-1,3,4-oxadiazol-2-yl)piperidine-1-carbonyl]phenyl}methyl)prop-2-enamide] | 87.6%
49 | C=CC(=O)N[C@@H](CN(C)C)c1ccccc1 [2-M19, N-[(1R)-2-(dimethylamino)-1-phenylethyl]prop-2-enamide] | 87.1%
50 | C=CC(=O)NCc1nc(OC)cc(OC)n1 [2-M20, N-[(4,6-dimethoxypyrimidin-2-yl)methyl]prop-2-enamide] | 99.2%
51 | C=CC(=O)Nc1ccc(C(=O)NC2CCN(S(C)(=O)=O)CC2)cc1 [2-M21, N-(1-methanesulfonylpiperidin-4-yl)-4-(prop-2-enamido)benzamide] | 90.2%
